According to EP4725956A1, “MODIFIED POLYPEPTIDE AND USE THEREOF IN FIELD OF ANALGESIA” (Nanjing Anji Biotechnology Co., Ltd., priority 2023, dated 2024):
Positions of bridges follow the written chain, without caps; N, C: chain ends. Non-standard residues stand in square brackets, D forms with d. Residues, ends and D or L forms follow the SMILES beside them. Hyp = O=C(O)[C@@H]1C[C@@H](O)CN1; Nle = CCCC[C@H](N)C(=O)O; Orn = NCCC[C@H](N)C(=O)O

Columns and labels:
rat CCI model = assay: Rat CCI (chronic constriction injury) model (Example 9); type: in vivo; details: 1 mg/kg s.c. (AJ003; AJ003-36 medium dose)
Description: Neuropathic pain has many types, and animal models can simulate clinical neuropathic pain. Common SD rat sciatic nerve neuropathic pain models include CCI (Chronic Constriction Injury), SNI (Spared Nerve Injury), SNL (Spinal Nerve Ligation), and CCD (using stainless steel wire through the intervertebral foramen to fix and compress the dorsal root ganglion). Among them, the CCI model is widely used to study neuropathic pain, providing a basis for further research on mechanisms and strategies for nerve injury repair (Wen Xiaojun, Medical Information, Jan. 2018, Vol. 31, No.1). In this example, the CCI model was employed.
Except for the control group, the remaining SD rats were anesthetized via intraperitoneal injection of 10% chloral hydrate saline solution at a dose of 0.3 mL per 100 g body weight, and surgical modeling was performed. The right hind limb skin was carefully incised, muscles were separated, and the sciatic nerve was ligated three times using 4-0 surgical silk, spaced 1 mm apart. Muscles and skin were sutured, and antibiotics were applied to the wound to prevent infection. […] Approximately 10 days post-surgery, plantar pain thresholds were measured three times for each rat, and the average value was calculated. Rats were randomly assigned to groups based on pain thresholds. Drug administration was performed according to Table 8, and plantar pain thresholds were measured at 2 h, 4 h, 6 h, and 8 h after administration.

[1] = test system: mouse oxaliplatin-induced acute chemotherapy pain model; assay: Mouse oxaliplatin chemotherapy pain model, different doses (Example 7); type: in vivo; details: 2 mg/kg s.c. (AJ003; AJ003-36 medium dose)
Protocol: Oxaliplatin was dissolved in 5% glucose solution to a concentration of 1 mg/mL. For model induction, each male C57 mouse (Hangzhou Ziyuan Experimental Animal Technology Co., Ltd.) received a single intraperitoneal injection of oxaliplatin at 10 mg/kg. Mice in the negative control or blank control group received 5% glucose solution. Approximately one week after model induction, mechanical pain thresholds of the mice were measured three times per mouse, and the average value was calculated. Mice were then randomly assigned to groups based on their pain thresholds. Drug administration was carried out according to the dosing schedule shown in Table 6, with a single dose per mouse. Mechanical pain thresholds were measured at 0.5, 1, 2, 4, 6, and 8 h post-dose. […] Table 6 Dosing Scheme for Oxaliplatin Chemotherapy Pain Model

[2] = In vitro plasma stability and predicted half-life (HPLC main peak area, Example 3); type: in vitro ADME; details: human plasma (EDTA anticoagulant), 37°C, sampled up to 24 h, predicted half-life calculated with Winolin
Protocol: The modified peptides in this study were designed with non-natural amino acid substitutions at certain non-essential positions to enhance peptide stability and improve druggability. Peptides were dissolved in deionized water to 2 mg/mL, then diluted with acetonitrile to 1 mg/mL and filtered through an organic membrane. 200 µL of the filtrate was transferred to an LC vial as the peptide control. 300 µL of human plasma (comprising EDTA as anticoagulant, Nanjing Senbeijia Biotechnology Co., Ltd., Lot No. SBJ-P-HU011-100 mL) was mixed with 300 µL acetonitrile, centrifuged at 4°C and 12,000 rpm for 5 minutes. The supernatant was filtered through an organic membrane, and 200 µL of the filtrate was transferred to an LC vial as the plasma blank control. For peptide samples, 10 mg of peptide was weighed mixed with 5 mL of human plasma and vortexed thoroughly. 300 µL of peptide-containing plasma was mixed with 300 µL acetonitrile, centrifuged at 4°C and 12,000 rpm for 5 minutes, and the supernatant was filtered through an organic membrane. 200 µL of the filtrate was transferred to an LC vial as the 0 min sample. Peptide-containing plasma was incubated in a 37°C water bath, and samples at other time points were collected using the same procedure as the 0 min sample. For peptides AJ003 and AJ003-1, the sampling time points were 0 min, 5 min, 10 min, 20 min, 30 min, 1 h, 2 h, 4 h, 6 h, 10 h, 12 h, and 24 h. For modified peptides AJ003-34, AJ003-35, AJ003-36, AJ003-37, AJ003-38, AJ003-39, AJ003-40, AJ003-41, and AJ003-42, the time points were 0 min, 10 min, 30 min, 1 h, 4 h, 6 h, 10 h, 12 h, and 24 h. All peptide sample series were analyzed by HPLC, recording the changes in main peak areas over plasma incubation time. Predicted in vitro half-lives were calculated using the pharmacokinetic software Winolin. Due to the presence of tautomers, AJ003 peak areas were difficult to integrate accurately over time. AJ003-1 is an analog of AJ003 in which the threonine at position 5 is substituted with D-threonine; its sequence differs from AJ003 by only one amino acid configuration. […] The in vitro plasma half-lives of modified peptides AJ003-34, AJ003-35, AJ003-36, AJ003-37, AJ003-38, AJ003-39, AJ003-40, AJ003-41, and AJ003-42 were 61.9 h, 45.3 h, 65.3 h, 71.0 h, 26.7 h, 43.0 h, 84.0 h, 30.0 h, and 61.4 h, respectively.

CC(C)C[C@H](NC(=O)[C@@H](NC(=O)[C@H]1CSSC[C@H](NC(=O)[C@H](CO)NC(=O)CN)C(=O)N[C@@H](CO)C(=O)N[C@@H]([C@@H](C)O)C(=O)N2CCC[C@H]2C(=O)N2CCC[C@H]2C(=O)N[C@@H](CO)C(=O)N1)C(C)C)C(=O)N[C@@H](Cc1ccc(O)cc1)C(=O)N[C@@H](CO)C(=O)O [AJ003, GSCSTPPS-(D-Cys)-VLYS (disulfide bond between positions 3 and 9)] (H-GSCSTPPS[dC]VLYS-OH; disulfide 3-9)
analgesic activity compared with the model group (mechanical pain threshold) (rat CCI model; Day 1 of dosing, 2 h and 4 h): significant analgesic activity | analgesic activity compared with the model group (mechanical pain threshold) (rat CCI model; Day 1 of dosing, 6 h): no significant difference | analgesic activity compared with the model group (mechanical pain threshold) (rat CCI model; Day 1 of dosing, 8 h): not significantly different | analgesic activity compared with the model group (mechanical pain threshold) (rat CCI model; Day 4 of dosing, 2 h and 4 h): significant analgesic activity | analgesic activity compared with the model group (mechanical pain threshold) (rat CCI model; Day 4 of dosing, 6 h and 8 h): no longer significant | analgesic activity compared with the model group (mechanical pain threshold) (rat CCI model; Day 7 of dosing, 2 h and 4 h): significant analgesic activity | analgesic activity compared with the model group (mechanical pain threshold) (rat CCI model; Day 7 of dosing, 6 h): no significant effect | analgesic activity compared with the model group (mechanical pain threshold) (rat CCI model; Day 7 of dosing, 8 h): not significant | analgesic activity compared with the model group (mechanical pain threshold) (rat CCI model; Day 10 of dosing, 2 h and 4 h): significant analgesic activity | analgesic activity compared with the model group (mechanical pain threshold) (rat CCI model; Day 10 of dosing, 6 h): no significant effect | analgesic activity compared with the model group (mechanical pain threshold) (rat CCI model; Day 10 of dosing, 8 h): not significant | analgesic activity compared with the model group (mechanical pain threshold) (rat CCI model; Day 14 of dosing, 2 h and 4 h): significant analgesic activity | analgesic activity compared with the model group (mechanical pain threshold) (rat CCI model; Day 14 of dosing, 6 h): no significant effect | analgesic activity compared with the model group (mechanical pain threshold) (rat CCI model; Day 14 of dosing, 8 h): not significant | analgesic activity compared with the model group (mechanical pain threshold) ([1]; single dose, 0.5, 1, 2 and 4 h post-dose): significant analgesic activity | analgesic activity compared with the model group (mechanical pain threshold) ([1]; single dose, 6 h post-dose): no significant effect | analgesic activity compared with the model group (mechanical pain threshold) ([1]; single dose, 8 h post-dose): no significant effect

CCCC[C@H](NC(=O)[C@@H](NC(=O)[C@H]1CSSC[C@H](NC(=O)[C@H](CO)NC(=O)CN)C(=O)N[C@@H](CO)C(=O)N[C@H]([C@H](C)O)C(=O)N2C[C@H](O)C[C@H]2C(=O)N2C[C@H](O)C[C@H]2C(=O)N[C@@H](CO)C(=O)N1)C(C)C)C(=O)N[C@@H](Cc1c[nH]c2ccccc12)C(=O)N[C@@H](CCCN)C(N)=O [AJ003-40, GSCS-(D-Thr)-Hyp-Hyp-S-(D-Cys)-V-Nle-W-Orn-NH2 (3,9 disulfide bond)] (H-GSCS[dT][Hyp][Hyp]S[dC]V[Nle]W[Orn]-NH2; disulfide 3-9)
half-life at 2 mg/mL [2]: 84 h
